Experimental data taken from patent publication US20170232083A1, “METHODS OF DIAGNOSIS AND TREATMENT OF CELIAC DISEASE IN CHILDREN” (priority 2014, published 2017).

System: PBMC (polyclonal gluten-specific T cells) of paediatric and adult CD patients
Assay: IFN-γ ELISpot of PBMC after 3 day oral wheat challenge (SFU, % of maximal peptide response, dominance scores, EC50; Examples 5-6)
Assay type: cell-based, human
Conditions: for IFN-γ ELISpot response: after oral wheat challenge; for Cross-reactive T cell response: following wheat challenge
[1] = patient G, 11-17 yrs, cut-off 10 SFU
[2] = patient H, 11-17 yrs, cut-off 10 SFU
[3] = patient ID not given, 11-17 yrs, cut-off 10 SFU
[4] = patient P, 11-17 yrs, cut-off 21.6 SFU
[5] = patient Q, 11-17 yrs, cut-off 10 SFU
[6] = patient U, H, 11-17 yrs, cut-off 10 SFU
[7] = patient V, 6-10 yrs, cut-off 10 SFU
[8] = patient Y, 6-10 yrs, cut-off 10 SFU
[9] = patient eleven, 6-10 yrs, cut-off 10 SFU
[10] = patient four, 3-5yrs, cut-off 10 SFU
[11] = patient seven, 6-10 yrs, cut-off 10.5 SFU
[12] = patient ten, 3-5yrs, cut-off 10 SFU
[13] = patient three, 6-10 yrs, cut-off 10.5 SFU
[14] = patient two, 3-5yrs, cut-off 10 SFU
[15] = patient seven, max peptide 27 SFU
[16] = subject I (3-5yrs/6-10yrs part)
[17] = subject J (3-5yrs/6-10yrs part)
[18] = subject K (3-5yrs/6-10yrs part)
[19] = subject V (3-5yrs/6-10yrs part)
[20] = subject W (3-5yrs/6-10yrs part)
[21] = subject Y (3-5yrs/6-10yrs part)
[22] = subject five (3-5yrs/6-10yrs part)
[23] = subject seven (3-5yrs/6-10yrs part)
[24] = subject six (3-5yrs/6-10yrs part)
[25] = subject ten (3-5yrs/6-10yrs part)
[26] = subject two (3-5yrs/6-10yrs part)

PQQPQQSFPQQQQPA
IFN-γ ELISpot response [1]: 11 SFU
Significant response as percentage of maximal peptide SFU (patient G, max peptide 15 SFU): + (>70% = +)
IFN-γ ELISpot response [2]: 1 SFU
IFN-γ ELISpot response [3]: 3 SFU
Significant response as percentage of maximal peptide SFU (patient K, max peptide 53 SFU): ′′ (21-40% = ′′)
IFN-γ ELISpot response [4]: 4 SFU
IFN-γ ELISpot response [5]: 1 SFU
IFN-γ ELISpot response [6]: 2 SFU
IFN-γ ELISpot response [7]: 10 SFU
Significant response as percentage of maximal peptide SFU (patient V, max peptide 35 SFU): ′′ (21-40% = ′′)
IFN-γ ELISpot response [8]: 3 SFU
IFN-γ ELISpot response [9]: 0 SFU
IFN-γ ELISpot response [10]: 0 SFU
IFN-γ ELISpot response [11]: 10 SFU
IFN-γ ELISpot response [12]: 7 SFU
IFN-γ ELISpot response [13]: 1 SFU
IFN-γ ELISpot response [14]: 0 SFU

GQSGYYPTSPQQS
IFN-γ ELISpot response (patient A, 11-17 yrs, cut-off 10 SFU): 5 SFU
IFN-γ ELISpot response (patient E, H, 11-17 yrs, cut-off 10 SFU): 0 SFU
IFN-γ ELISpot response (patient F, 11-17 yrs, cut-off 10 SFU): 10 SFU
Significant response as percentage of maximal peptide SFU (patient F, max peptide 178 SFU): (6-10% = ^)
IFN-γ ELISpot response [1]: 1 SFU
IFN-γ ELISpot response (patient H (HLA-DQ2.5 homozygote), 3-5yrs, cut-off 10 SFU): 2 SFU
IFN-γ ELISpot response [2]: 4 SFU
IFN-γ ELISpot response [3]: 1 SFU
Significant response as percentage of maximal peptide SFU (patient II, max peptide 15 SFU): + (>70% = +)
IFN-γ ELISpot response (patient N, 3-5yrs, cut-off 10 SFU): 0 SFU
IFN-γ ELISpot response [4]: 10 SFU
IFN-γ ELISpot response [5]: 5 SFU
IFN-γ ELISpot response [6]: 4 SFU
IFN-γ ELISpot response [7]: 3 SFU
IFN-γ ELISpot response [8]: 0 SFU
IFN-γ ELISpot response [9]: 4 SFU
IFN-γ ELISpot response [10]: 3 SFU
IFN-γ ELISpot response [11]: 11 SFU
Significant response as percentage of maximal peptide SFU [15]: ′′′ (41-70% = ′′′)
IFN-γ ELISpot response [12]: 5 SFU
IFN-γ ELISpot response [13]: 6 SFU
IFN-γ ELISpot response (patient twelve, 11-17 yrs, cut-off 10 SFU): 2 SFU
IFN-γ ELISpot response [14]: 2 SFU

QEFPQPEQPFPQQ
Cross-reactive T cell response (subject A, 11-17yrs): 4 SFU
Significant response as a percentage of maximal peptide SFU (subject D, 11-17yrs): ′′′ (41-70% = ′′′)
Cross-reactive T cell response (subject D, 11-17yrs): 15 SFU
Significant response as a percentage of maximal peptide SFU (subject E, 11-17yrs): ′ (11-20% = ′)
Cross-reactive T cell response (subject E, 11-17yrs): 30 SFU
Significant response as a percentage of maximal peptide SFU (subject F, 11-17yrs): ′′ (21-40% = ′′)
Cross-reactive T cell response (subject F, 11-17yrs): 38 SFU
Cross-reactive T cell response (subject G, 11-17yrs): 4 SFU
Cross-reactive T cell response (subject H): 1 SFU
Cross-reactive T cell response [16]: 8 SFU
Significant response as a percentage of maximal peptide SFU (subject J): ′′′ (41-70% = ′′′)
Cross-reactive T cell response [17]: 93 SFU
Significant response as a percentage of maximal peptide SFU (subject K): ′′ (21-40% = ′′)
Cross-reactive T cell response [18]: 21 SFU
Cross-reactive T cell response (subject P, 11-17yrs): 7 SFU
Significant response as a percentage of maximal peptide SFU (subject Q, 11-17yrs): ′′′ (41-70% = ′′′)
Cross-reactive T cell response (subject Q, 11-17yrs): 44 SFU
Significant response as a percentage of maximal peptide SFU (subject T, 11-17yrs): + (>70% = +)
Cross-reactive T cell response (subject T, 11-17yrs): 67 SFU
Significant response as a percentage of maximal peptide SFU (subject U, 11-17yrs): ′′ (21-40% = ′′)
Cross-reactive T cell response (subject U, 11-17yrs): 23 SFU
Significant response as a percentage of maximal peptide SFU (subject V): ′′ (21-40% = ′′)
Cross-reactive T cell response [19]: 11 SFU
Cross-reactive T cell response [20]: 3 SFU
Cross-reactive T cell response [21]: 2 SFU
Significant response as a percentage of maximal peptide SFU (subject five): + (>70% = +)
Cross-reactive T cell response [22]: 36 SFU
Cross-reactive T cell response (subject nine, 11-17yrs): 1 SFU
Cross-reactive T cell response [23]: 2 SFU
Cross-reactive T cell response [24]: 6 SFU
Cross-reactive T cell response [25]: 8 SFU
Significant response as a percentage of maximal peptide SFU (subject two): ′′′ (41-70% = ′′′)
Cross-reactive T cell response [26]: 30 SFU

QPFPQPEQPIPYQ
Cross-reactive T cell response (subject A, 11-17yrs): 8 SFU
Significant response as a percentage of maximal peptide SFU (subject D, 11-17yrs): + (>70% = +)
Cross-reactive T cell response (subject D, 11-17yrs): 23 SFU
Significant response as a percentage of maximal peptide SFU (subject E, 11-17yrs): ′′ (21-40% = ′′)
Cross-reactive T cell response (subject E, 11-17yrs): 86 SFU
Significant response as a percentage of maximal peptide SFU (subject F, 11-17yrs): ′′′ (41-70% = ′′′)
Cross-reactive T cell response (subject F, 11-17yrs): 84 SFU
Cross-reactive T cell response (subject G, 11-17yrs): 2 SFU
Cross-reactive T cell response (subject H): 3 SFU
Cross-reactive T cell response [16]: 5 SFU
Significant response as a percentage of maximal peptide SFU (subject J): ′′′ (41-70% = ′′′)
Cross-reactive T cell response [17]: 124 SFU
Significant response as a percentage of maximal peptide SFU (subject K): ′′ (21-40% = ′′)
Cross-reactive T cell response [18]: 21 SFU
Significant response as a percentage of maximal peptide SFU (subject P, 11-17yrs): ′′′ (41-70% = ′′′)
Cross-reactive T cell response (subject P, 11-17yrs): 33 SFU
Significant response as a percentage of maximal peptide SFU (subject Q, 11-17yrs): ′′′ (41-70% = ′′′)
Cross-reactive T cell response (subject Q, 11-17yrs): 58 SFU
Significant response as a percentage of maximal peptide SFU (subject T, 11-17yrs): + (>70% = +)
Cross-reactive T cell response (subject T, 11-17yrs): 84 SFU
Significant response as a percentage of maximal peptide SFU (subject U, 11-17yrs): ′′′ (41-70% = ′′′)
Cross-reactive T cell response (subject U, 11-17yrs): 55 SFU
Significant response as a percentage of maximal peptide SFU (subject V): ′′′ (41-70% = ′′′)
Cross-reactive T cell response [19]: 22 SFU
Cross-reactive T cell response [20]: 11 SFU
Significant response as a percentage of maximal peptide SFU (subject Y): ′′′ (41-70% = ′′′)
Cross-reactive T cell response [21]: 11 SFU
Significant response as a percentage of maximal peptide SFU (subject five): ′′′ (41-70% = ′′′)
Cross-reactive T cell response [22]: 30 SFU
Cross-reactive T cell response (subject nine, 11-17yrs): 0 SFU
Cross-reactive T cell response [23]: 8 SFU
Significant response as a percentage of maximal peptide SFU (subject six): + (>70% = +)
Cross-reactive T cell response [24]: 11 SFU
Cross-reactive T cell response [25]: 9 SFU
Significant response as a percentage of maximal peptide SFU (subject two): ′′′ (41-70% = ′′′)
Cross-reactive T cell response [26]: 31 SFU

FLQPEQPFPEQPEQPYPEQPEQPFPQ
IFN-γ ELISpot response [1]: 1 SFU
IFN-γ ELISpot response [2]: 6 SFU
IFN-γ ELISpot response [3]: 23 SFU
Significant response as percentage of maximal peptide SFU (patient ID not given, max peptide 95 SFU): ′′ (21-40% = ′′)
Significant response as percentage of maximal peptide SFU (patient J, max peptide 196 SFU): ′ (11-20% = ′)
Significant response as percentage of maximal peptide SFU (patient K, max peptide 53 SFU): ′′ (21-40% = ′′)
IFN-γ ELISpot response [4]: 11 SFU
IFN-γ ELISpot response [5]: 18 SFU
Significant response as percentage of maximal peptide SFU (patient Q, max peptide 97 SFU): ′ (11-20% = ′)
IFN-γ ELISpot response [6]: 26 SFU
Significant response as percentage of maximal peptide SFU (patient U, max peptide 81 SFU): ′′ (21-40% = ′′)
IFN-γ ELISpot response [7]: 12 SFU
Significant response as percentage of maximal peptide SFU (patient V, max peptide 35 SFU): ′′ (21-40% = ′′)
IFN-γ ELISpot response [8]: 6 SFU
IFN-γ ELISpot response [9]: 15 SFU
Significant response as percentage of maximal peptide SFU (patient eleven, max peptide 57 SFU): ′′ (21-40% = ′′)
IFN-γ ELISpot response [10]: 10 SFU
Significant response as percentage of maximal peptide SFU (patient four, max peptide 44 SFU): ′′ (21-40% = ′′)
IFN-γ ELISpot response [11]: 20 SFU
Significant response as percentage of maximal peptide SFU [15]: + (>70% = +)
IFN-γ ELISpot response [12]: 3 SFU
IFN-γ ELISpot response [13]: 22 SFU
IFN-γ ELISpot response [14]: 12 SFU
Significant response as percentage of maximal peptide SFU (patient two, max peptide 60 SFU): ′ (11-20% = ′)

QPFPQPEQPFSWQ
Cross-reactive T cell response (subject A, 11-17yrs): 0 SFU
Significant response as a percentage of maximal peptide SFU (subject D, 11-17yrs): ′′′ (41-70% = ′′′)
Cross-reactive T cell response (subject D, 11-17yrs): 16 SFU
Significant response as a percentage of maximal peptide SFU (subject E, 11-17yrs): ′ (11-20% = ′)
Cross-reactive T cell response (subject E, 11-17yrs): 34 SFU
Significant response as a percentage of maximal peptide SFU (subject F, 11-17yrs): ′ (11-20% = ′)
Cross-reactive T cell response (subject F, 11-17yrs): 19 SFU
Cross-reactive T cell response (subject G, 11-17yrs): 6 SFU
Cross-reactive T cell response (subject H): 1 SFU
Cross-reactive T cell response [16]: 2 SFU
Significant response as a percentage of maximal peptide SFU (subject J): ′′′ (41-70% = ′′′)
Cross-reactive T cell response [17]: 79 SFU
Significant response as a percentage of maximal peptide SFU (subject K): ′′ (21-40% = ′′)
Cross-reactive T cell response [18]: 20 SFU
Cross-reactive T cell response (subject P, 11-17yrs): 14 SFU
Significant response as a percentage of maximal peptide SFU (subject Q, 11-17yrs): ′′ (21-40% = ′′)
Cross-reactive T cell response (subject Q, 11-17yrs): 29 SFU
Significant response as a percentage of maximal peptide SFU (subject T, 11-17yrs): ′′′ (41-70% = ′′′)
Cross-reactive T cell response (subject T, 11-17yrs): 41 SFU
Significant response as a percentage of maximal peptide SFU (subject U, 11-17yrs): ′′ (21-40% = ′′)
Cross-reactive T cell response (subject U, 11-17yrs): 18 SFU
Significant response as a percentage of maximal peptide SFU (subject V): + (>70% = +)
Cross-reactive T cell response [19]: 25 SFU
Cross-reactive T cell response [20]: 3 SFU
Cross-reactive T cell response [21]: 8 SFU
Significant response as a percentage of maximal peptide SFU (subject five): + (>70% = +)
Cross-reactive T cell response [22]: 42 SFU
Cross-reactive T cell response (subject nine, 11-17yrs): 1 SFU
Cross-reactive T cell response [23]: 6 SFU
Cross-reactive T cell response [24]: 8 SFU
Cross-reactive T cell response [25]: 0 SFU
Significant response as a percentage of maximal peptide SFU (subject two): ′′ (21-40% = ′′)
Cross-reactive T cell response [26]: 26 SFU
